In this data set the test system is CaSki cells. Put plainly: LY411,575 combinations in CaSki cells, growth inhibition and isobologram analysis. In kind it is cell-based, human. The note with it: CaSki. The protocol:
To evaluate the possibility that inhibition of Notch signaling may sensitize advanced cervical cancers to the effect of cisplatin chemotherapy because Notch-1 protects these cells from apoptosis through the AKT and NF-κB pathways, a non-peptide, benzodiazepine gamma-secretase inhibitor, LY411,575 (Wong et al., 2004, J Biol. Chem. 279:12876-82) was tested in combination with a AKT inhibitor (AKT inhibitor I) or a proteasome inhibitor (MG-132) for effects on cell growth. The latter class of drugs is thought to act primarily by preventing NF-KB activation (Adams, J, 2002, Curr Opin Oncol 14:628-634; Richardson, P, 2003, Cancer Treat Rev 29 Suppl 1:33-39) caused by proteasome-mediated degradation of IκB.
To determine whether LY411,575 potentiates the effect of AKT inhibitor I or MG-132, CaSki cells were treated with (a) LY411,575 (6.25 μM to 50 μM) and AKT inhibitor 1 (0.5 μM to 75 μM), or (b) LY411,575 (1.5 μM to 200 μM) and MG-132 (0.05 μM to 0.2). Following the drug treatment, the cells were tested for growth inhibition as described above. LY411,575 was synthesized according to methods well known in the art (e.g., see WO-09828268, which is incorporated by reference), and AKT inhibitor I and MG-132 were purchased from Calbiochem.
The IC50 values of LY411,575 in the presence of various concentrations of AKT inhibitor I or MG-132 were measured. […]

1 compound from patent publication US20080220416A1, “Compositions for Inhibiting Cell Growth and Inducing Apoptosis in Cancer Cells and Methods of Use Thereof” (THE BOARD OF TRUSTEES OF THE UNIVERSITY OF ILLINOI, priority 2004, published 2008) can be followed below.

Peptide text beside a SMILES is read from it. * marks the point of attachment. Cbz = O=C(OCc1ccccc1)*

Regarding `CC(C)C[C@@H](C=O)NC(=O)[C@H](CC(C)C)NC(=O)[C@H](CC(C)C)NC(=O)OCc1ccccc1` [MG-132, benzoxycarbonyl-Leucyl-Leucyl-Leucyl-aldehyde] (Cbz-Leu-Leu-Leu-aldehyde), the “combination with LY411,575 in cytotoxicity assays / isobologram” value is “striking synergism”.
